Results reported in patent US20230085307A1, “PYRIDAZINONE COMPOUND AND HERBICIDE” (NISSAN CHEMICAL CORPORATION, priority 2019, published 2023).

Assays:
[1] = test system: Chinese sprangletop; assay: Test Example 3: herbicidal effect by foliage application, Wagner pot (Table 18, symbol D); type: in vivo, chinese sprangletop (Leptochloa chinensis)
Procedure, shortened: (§1)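 Plants were sown in alluvial soil held under 0.1–0.5 cm standing water and grown 14 days in a greenhouse at 25–30 °C. An emulsifiable formulation, water-diluted to the set dose, was then sprayed onto the foliage, and effects were scored three weeks later using previously defined criteria.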

[2] = test system: wild oat; assay: Test Example 5: herbicidal effect by foliage application, plastic box (Table 20, symbol I); type: in vivo, wild oat (Avena fatua); details: foliage application, 320 g/ha
Procedure, shortened: (§2)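 Sow seeds spot-wise in sterilized diluvial soil; cover with ~1.5 cm soil. Grow 14 days in greenhouse, 25° C. to 30° C. Spray foliage with emulsion diluted to predetermined amount. Rate effect after 3 weeks.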

[3] = test system: barnyard grass; assay: Test Example 4: herbicidal effect by soil treatment (Table 19, symbol H); type: in vivo, barnyard grass (Echinochloa crus-galli)
Procedure, shortened: (§3)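 Applied as a water-diluted emulsion, the compound was sprayed onto soil covering newly sown seeds. Evaluation came three weeks after application, in a greenhouse held at 25° C. to 30° C.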

[4] = test system: southern crabgrass; assay: Test Example 5: herbicidal effect by foliage application, plastic box (Table 20, symbol F); type: in vivo, southern crabgrass (Digitaria ciliaris); details: foliage application, 320 g/ha
Procedure, shortened: as §2

[5] = test system: lambsquarters; assay: Test Example 4: herbicidal effect by soil treatment (Table 19, symbol O); type: in vivo, lambsquarters (Chenopodium album)
Procedure, shortened: as §3

[6] = test system: persian speedwell; assay: Test Example 5: herbicidal effect by foliage application, plastic box (Table 20, symbol R); type: in vivo, Persian speedwell (Veronica persica); details: foliage application, 320 g/ha
Procedure, shortened: as §2

[7] = test system: windgrass; assay: Test Example 5: herbicidal effect by foliage application, plastic box (Table 20, symbol L); type: in vivo, windgrass (Apera spica-venti); details: foliage application, 320 g/ha
Procedure, shortened: as §2

[8] = test system: redroot pigweed; assay: Test Example 4: herbicidal effect by soil treatment (Table 19, symbol N); type: in vivo, redroot pigweed (Amaranthus retroflexus)
Procedure, shortened: as §3

[9] = test system: blackgrass; assay: Test Example 4: herbicidal effect by soil treatment (Table 19, symbol J); type: in vivo, blackgrass (Alopecurus myosuroides)
Procedure, shortened: as §3

[10] = test system: rice flat sedge; assay: Test Example 3: herbicidal effect by foliage application, Wagner pot (Table 18, symbol E); type: in vivo, rice flat sedge (Cyperus iria)
Procedure, shortened: as §1

[11] = test system: windgrass; assay: Test Example 4: herbicidal effect by soil treatment (Table 19, symbol L); type: in vivo, windgrass (Apera spica-venti)
Procedure, shortened: as §3

[12] = test system: persian speedwell; assay: Test Example 4: herbicidal effect by soil treatment (Table 19, symbol R); type: in vivo, Persian speedwell (Veronica persica)
Procedure, shortened: as §3

[13] = test system: oval-leafed pondweed; assay: Test Example 2: herbicidal activity, application during weed generation under submerged conditions (Table 17, symbol C); type: in vivo, oval-leafed pondweed (Monochoria vaginalis); details: AAH 320 g/ha; application during weed generation, submerged conditions
Procedure, shortened: (§4)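 Herbicide emulsion, diluted with water to the chosen amount, is applied onto 4 cm floodwater over alluvial soil where the weeds were co-sown and raised at 25–30° C. Application timing: 1–2 leaves. Assessment: three weeks afterwards.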

[14] = test system: barnyard grass; assay: Test Example 5: herbicidal effect by foliage application, plastic box (Table 20, symbol H); type: in vivo, barnyard grass (Echinochloa crus-galli); details: foliage application, 320 g/ha
Procedure, shortened: as §2

[15] = test system: blackgrass; assay: Test Example 5: herbicidal effect by foliage application, plastic box (Table 20, symbol J); type: in vivo, blackgrass (Alopecurus myosuroides); details: foliage application, 320 g/ha
Procedure, shortened: as §2

[16] = test system: late watergrass; assay: Test Example 2: herbicidal activity, application during weed generation under submerged conditions (Table 17, symbol A); type: in vivo, late watergrass (Echinochloa oryzicola); details: AAH 320 g/ha; application during weed generation, submerged conditions
Procedure, shortened: as §4

[17] = test system: Italian ryegrass; assay: Test Example 5: herbicidal effect by foliage application, plastic box (Table 20, symbol K); type: in vivo, Italian ryegrass (Lolium multiflorum); details: foliage application, 320 g/ha
Procedure, shortened: as §2

[18] = test system: barnyard grass; assay: Test Example 3: herbicidal effect by foliage application, Wagner pot (Table 18, symbol H); type: in vivo, barnyard grass (Echinochloa crus-galli)
Procedure, shortened: as §1

[19] = test system: green foxtail; assay: Test Example 4: herbicidal effect by soil treatment (Table 19, symbol G); type: in vivo, green foxtail (Setaria viridis)
Procedure, shortened: as §3

[20] = test system: green foxtail; assay: Test Example 5: herbicidal effect by foliage application, plastic box (Table 20, symbol G); type: in vivo, green foxtail (Setaria viridis); details: foliage application, 320 g/ha
Procedure, shortened: as §2

[21] = test system: southern crabgrass; assay: Test Example 4: herbicidal effect by soil treatment (Table 19, symbol F); type: in vivo, southern crabgrass (Digitaria ciliaris)
Procedure, shortened: as §3

[22] = test system: velvetleaf; assay: Test Example 4: herbicidal effect by soil treatment (Table 19, symbol M); type: in vivo, velvetleaf (Abutilon theophrasti)
Procedure, shortened: as §3

[23] = test system: lambsquarters; assay: Test Example 5: herbicidal effect by foliage application, plastic box (Table 20, symbol O); type: in vivo, lambsquarters (Chenopodium album); details: foliage application, 320 g/ha
Procedure, shortened: as §2

[24] = test system: wild oat; assay: Test Example 4: herbicidal effect by soil treatment (Table 19, symbol I); type: in vivo, wild oat (Avena fatua)
Procedure, shortened: as §3

[25] = test system: Japanese bulrush; assay: Test Example 2: herbicidal activity, application during weed generation under submerged conditions (Table 17, symbol B); type: in vivo, Japanese bulrush (Schoenoplectus juncoides); details: AAH 320 g/ha; application during weed generation, submerged conditions
Procedure, shortened: as §4

[26] = test system: velvetleaf; assay: Test Example 5: herbicidal effect by foliage application, plastic box (Table 20, symbol M); type: in vivo, velvetleaf (Abutilon theophrasti); details: foliage application, 320 g/ha
Procedure, shortened: as §2

[27] = test system: Italian ryegrass; assay: Test Example 4: herbicidal effect by soil treatment (Table 19, symbol K); type: in vivo, Italian ryegrass (Lolium multiflorum)
Procedure, shortened: as §3

[28] = test system: chickweed; assay: Test Example 4: herbicidal effect by soil treatment (Table 19, symbol P); type: in vivo, common chickweed (Stellaria media); details: 320 g/ha
Procedure, shortened: as §3

[29] = test system: redroot pigweed; assay: Test Example 5: herbicidal effect by foliage application, plastic box (Table 20, symbol N); type: in vivo, redroot pigweed (Amaranthus retroflexus); details: foliage application, 320 g/ha, evaluated three weeks after application
Procedure, shortened: as §2

[30] = test system: chickweed; assay: Test Example 5: herbicidal effect by foliage application, plastic box (Table 20, symbol P); type: in vivo, common chickweed (Stellaria media); details: foliage application, 320 g/ha, evaluated three weeks after application
Procedure, shortened: as §2

[31] = amount of applied herbicide 320 g/ha
[32] = evaluated three weeks after application

COCCOCOc1c(C)nn(C)c(=O)c1-c1c(-c2ccc(C(C)C)cc2)sc2ccc(F)cc12 [2-015]
herbicidal effect on D (Chinese sprangletop), rating 0-5 ([1]; 320 g/ha): 5 (Herbicidal rate of 90% or more (almost completely withered)) | effect on wild oat (I) ([2]; 3 weeks after application): 0 (Herbicidal rate of 5% or less (almost no effect)) | herbicidal effect rating, H: barnyard grass ([3]; 320 g/ha): 0 (Herbicidal rate of 5% or less (almost no effect)) | effect on southern crabgrass (F) ([4]; 3 weeks after application): 1 (Herbicidal rate of 5% or more and less than 20%) | herbicidal effect rating, O: lambsquarters ([5]; 320 g/ha): 2 (Herbicidal rate of 20% or more and less than 40%) | effect on persian speedwell (R) ([6]; 3 weeks after application): 5 (Herbicidal rate of 90% or more (almost completely withered)) | effect on windgrass (L) ([7]; 3 weeks after application): 4 (Herbicidal rate of 70% or more and less than 90%) | herbicidal effect rating, N: redroot pigweed ([8]; 320 g/ha): 5 (Herbicidal rate of 90% or more (almost completely withered)) | herbicidal effect rating, J: blackgrass ([9]; 320 g/ha): 0 (Herbicidal rate of 5% or less (almost no effect)) | herbicidal effect on E (rice flat sedge), rating 0-5 ([10]; 320 g/ha): 5 (Herbicidal rate of 90% or more (almost completely withered)) | herbicidal effect rating, L: windgrass ([11]; 320 g/ha): 0 (Herbicidal rate of 5% or less (almost no effect)) | herbicidal effect rating, R: persian speedwell ([12]; 320 g/ha): 4 (Herbicidal rate of 70% or more and less than 90%) | herbicidal effect rating, C: oval-leafed pondweed [13]: 0 (Herbicidal rate of 5% or less (almost no effect)) | effect on barnyard grass (H) ([14]; 3 weeks after application): 3 (Herbicidal rate of 40% or more and less than 70%) | effect on blackgrass (J) ([15]; 3 weeks after application): 0 (Herbicidal rate of 5% or less (almost no effect)) | herbicidal effect rating, A: late watergrass [16]: 4 (Herbicidal rate of 70% or more and less than 90%) | effect on Italian ryegrass (K) ([17]; 3 weeks after application): 0 (Herbicidal rate of 5% or less (almost no effect)) | herbicidal effect on H (barnyard grass), rating 0-5 ([18]; 320 g/ha): 5 (Herbicidal rate of 90% or more (almost completely withered)) | herbicidal effect rating, G: green foxtail ([19]; 320 g/ha): 0 (Herbicidal rate of 5% or less (almost no effect)) | effect on green foxtail (G) ([20]; 3 weeks after application): 0 (Herbicidal rate of 5% or less (almost no effect)) | herbicidal effect rating, F: southern crabgrass ([21]; 320 g/ha): 0 (Herbicidal rate of 5% or less (almost no effect)) | herbicidal effect rating, M: velvetleaf ([22]; 320 g/ha): 0 (Herbicidal rate of 5% or less (almost no effect)) | effect on lambsquarters (O) ([23]; 3 weeks after application): 5 (Herbicidal rate of 90% or more (almost completely withered)) | herbicidal effect rating, I: wild oat ([24]; 320 g/ha): 0 (Herbicidal rate of 5% or less (almost no effect)) | herbicidal effect rating, B: Japanese bulrush [25]: 0 (Herbicidal rate of 5% or less (almost no effect)) | effect on velvetleaf (M) ([26]; 3 weeks after application): 5 (Herbicidal rate of 90% or more (almost completely withered)) | herbicidal effect rating, K: Italian ryegrass ([27]; 320 g/ha): 0 (Herbicidal rate of 5% or less (almost no effect)) | herbicidal effect rating, P: chickweed [28]: 0 (Herbicidal rate of 5% or less (almost no effect))

CCCSc1ccc(-c2sc3ccc(F)cc3c2-c2c(O)c(C)nn(C)c2=O)cc1 [2-248]
herbicidal effect on N: redroot pigweed (criteria 0-5) [29]: 5 (Herbicidal rate of 90% or more (almost completely withered)) | herbicidal effect on D: Chinese sprangletop [1, 31]: 5 (Herbicidal rate of 90% or more (almost completely withered)) | herbicidal effect on I: wild oat (criteria 0-5) [2, 32]: 5 (Herbicidal rate of 90% or more (almost completely withered)) | herbicidal effect on H: barnyard grass [3, 31]: 2 (Herbicidal rate of 20% or more and less than 40%) | herbicidal effect on F: southern crabgrass (criteria 0-5) [4, 32]: 5 (Herbicidal rate of 90% or more (almost completely withered)) | herbicidal effect on O: lambsquarters [5, 31]: 4 (Herbicidal rate of 70% or more and less than 90%) | herbicidal effect on R: persian speedwell (criteria 0-5) [6, 32]: 5 (Herbicidal rate of 90% or more (almost completely withered)) | herbicidal effect on L: windgrass (criteria 0-5) [7, 32]: 5 (Herbicidal rate of 90% or more (almost completely withered)) | herbicidal effect on N: redroot pigweed [8, 31]: 5 (Herbicidal rate of 90% or more (almost completely withered)) | herbicidal effect on J: blackgrass [9, 31]: 0 (Herbicidal rate of 5% or less (almost no effect)) | herbicidal effect on E: rice flat sedge [10, 31]: 4 (Herbicidal rate of 70% or more and less than 90%) | herbicidal effect on L: windgrass [11, 31]: 0 (Herbicidal rate of 5% or less (almost no effect)) | herbicidal effect on R: persian speedwell [12, 31]: 4 (Herbicidal rate of 70% or more and less than 90%) | herbicidal effect rating, C: oval-leafed pondweed [13]: 0 (Herbicidal rate of 5% or less (almost no effect)) | herbicidal effect on H: barnyard grass (criteria 0-5) [14, 32]: 5 (Herbicidal rate of 90% or more (almost completely withered)) | herbicidal effect on J: blackgrass (criteria 0-5) [15, 32]: 4 (Herbicidal rate of 70% or more and less than 90%) | herbicidal effect rating, A: late watergrass [16]: 4 (Herbicidal rate of 70% or more and less than 90%) | herbicidal effect on K: Italian ryegrass (criteria 0-5) [17, 32]: 4 (Herbicidal rate of 70% or more and less than 90%) | herbicidal effect on H: barnyard grass [18, 31]: 5 (Herbicidal rate of 90% or more (almost completely withered)) | herbicidal effect on G: green foxtail [19, 31]: 4 (Herbicidal rate of 70% or more and less than 90%) | herbicidal effect on G: green foxtail (criteria 0-5) [20, 32]: 5 (Herbicidal rate of 90% or more (almost completely withered)) | herbicidal effect on F: southern crabgrass [21, 31]: 1 (Herbicidal rate of 5% or more and less than 20%) | herbicidal effect on M: velvetleaf [22, 31]: 3 (Herbicidal rate of 40% or more and less than 70%) | herbicidal effect on O: lambsquarters (criteria 0-5) [23, 32]: 5 (Herbicidal rate of 90% or more (almost completely withered)) | herbicidal effect on P: chickweed (criteria 0-5) [30]: 5 (Herbicidal rate of 90% or more (almost completely withered)) | herbicidal effect on I: wild oat [24, 31]: 0 (Herbicidal rate of 5% or less (almost no effect)) | herbicidal effect rating, B: Japanese bulrush [25]: 0 (Herbicidal rate of 5% or less (almost no effect)) | herbicidal effect on M: velvetleaf (criteria 0-5) [26, 32]: 5 (Herbicidal rate of 90% or more (almost completely withered)) | herbicidal effect on K: Italian ryegrass [27, 31]: 0 (Herbicidal rate of 5% or less (almost no effect))
